Results as given in patent US20080188498A1, “Pyridopyrimidinone compounds with antimalarial activity” (Radix Pharmaceuticals, Inc., priority 2007, published 2008).

Key:
[1] = test system: Plasmodium berghei KBG-173; test: Blood schizontocidal test, oral dosing, P. berghei in mice; assay type: in vivo, mouse; settings: days 3-5 postinfection
Procedure: Drugs were mixed in 0.5% hydroxycellulose 0.1% Tween 80 and administered orally b.i.d. on days 3, 4 and 5 postinfection. CD-1 male or female mice, 5 weeks of age, were infected with 5×10^4 parasitized erythrocytes of Plasmodium berghei KBG-173 mm strain. Blood films were taken on day +6 and weekly thereafter until day +60. Parasitemias were calculated and SD90 value (dose suppressing 90% of the parasites in treated groups compared with the infected non-treated controls) on day +6 postinfection. Mortality data was tabulated for 60 days at which time all mice surviving that were blood film negative were considered cured. […]

[2] = test system: P. berghei; test: Suppressive blood schizontocidal test, single subcutaneous dose, P. berghei in mice; assay type: in vivo, mouse; settings: 72 h after infection
Procedure: Mice were treated with a single dose of the compound administered subcutaneously 72 h. after infection. Number of cures is the number of mice surviving, out of five, 60 days postinfection.

[3] = test system: Plasmodium berghei KBG-173; test: Prophylactic test, oral, P. berghei in mice; assay type: in vivo, mouse
Description: Drugs were mixed in 0.5% hydroxycellulose 0.1% Tween 80 and administered orally b.i.d. either on day 5, 4, 3, 2, or 1 prior to the infection or 1 or 2 days postinfection. CD-I male or female mice, 5 weeks of age, were infected with 5×10^4 parasitized erythrocytes of Plasmodium berghei KBG-173 mm strain. Blood films were taken on day +6 and weekly thereafter until day+30. […]

[4] = test system: mouse; settings: strong liver toxicity; cited from earlier work
[5] = oral dose 0.25 mg/kg/day (total dose 0.75 mg/kg)
[6] = oral dose 1.0 mg/kg/day (total dose 3.0 mg/kg)
[7] = oral dose 4.0 mg/kg/day (total dose 12 mg/kg)
[8] = oral dose 16 mg/kg/day (total dose 48 mg/kg)
[9] = oral dose 64 mg/kg/day (total dose 192 mg/kg)
[10] = single subcutaneous dose 1 mg/kg
[11] = single subcutaneous dose 2 mg/kg
[12] = single subcutaneous dose 4 mg/kg
[13] = single subcutaneous dose 8 mg/kg
[14] = single subcutaneous dose 16 mg/kg
[15] = single subcutaneous dose 32 mg/kg
[16] = single subcutaneous dose 64 mg/kg
[17] = single subcutaneous dose 128 mg/kg
[18] = single dose of 0.5 mg/kg, day of treatment 1
[19] = single dose of 0.5 mg/kg, day of treatment 2
[20] = single dose of 0.5 mg/kg, day of treatment −1
[21] = single dose of 0.5 mg/kg, day of treatment −2

O=C(CC1NCCC1O)Cn1cnc2ccncc2c1=O (centres unmarked) [Compound II, 3-[3-(3-Hydroxy-pyrrolidin-2-yl)-2-oxo-propyl]-3H-pyrido[4,3-d]pyrimidin-4-one]
4/5: Mice surviving 60 days/Mice infected and treated [2, 10]
5/5: Mice surviving 60 days/Mice infected and treated [2, 11] | Mice surviving 60 days/Mice infected and treated [2, 12] | Mice surviving 60 days/Mice infected and treated [2, 13] | Mice surviving 60 days/Mice infected and treated [2, 14] | Mice surviving 60 days/Mice infected and treated [2, 15] | Mice surviving 60 days/Mice infected and treated [2, 16] | Mice surviving 60 days/Mice infected and treated [2, 17] | Mice surviving day 60/Mice infected and treated [3, 18] | Mice surviving day 60/Mice infected and treated [3, 19] | Mice surviving day 60/Mice infected and treated [3, 20] | Mice surviving day 60/Mice infected and treated [3, 21]
7/7: Mice surviving 60 days/Mice infected and treated [1, 5] | Mice surviving 60 days/Mice infected and treated [1, 6] | Mice surviving 60 days/Mice infected and treated [1, 7] | Mice surviving 60 days/Mice infected and treated [1, 8] | Mice surviving 60 days/Mice infected and treated [1, 9]

O=C(CC1NCCC1O)Cn1cnc2cccc(F)c2c1=O (centres unmarked) [Compound III, 5-Fluoro-3-[3-(3-hydroxy-pyrrolidin-2-yl)-2-oxo-propyl]-3H-quinazolin-4-one]
6/7: Mice surviving 60 days/Mice infected and treated [1, 6]
5/7: Mice surviving 60 days/Mice infected and treated [1, 5]
5/5: Mice surviving 60 days/Mice infected and treated [2, 11] | Mice surviving 60 days/Mice infected and treated [2, 12] | Mice surviving 60 days/Mice infected and treated [2, 13] | Mice surviving 60 days/Mice infected and treated [2, 14] | Mice surviving 60 days/Mice infected and treated [2, 15] | Mice surviving 60 days/Mice infected and treated [2, 16] | Mice surviving 60 days/Mice infected and treated [2, 17] | Mice surviving day 60/Mice infected and treated [3, 18] | Mice surviving day 60/Mice infected and treated [3, 19] | Mice surviving day 60/Mice infected and treated [3, 20] | Mice surviving day 60/Mice infected and treated [3, 21]
4/5: Mice surviving 60 days/Mice infected and treated [2, 10]
7/7: Mice surviving 60 days/Mice infected and treated [1, 7] | Mice surviving 60 days/Mice infected and treated [1, 8] | Mice surviving 60 days/Mice infected and treated [1, 9]

O=C(CC1NCCC1O)Cn1cnc2cccnc2c1=O (centres unmarked) [Compound I, 3-[3-(3-Hydroxy-pyrrolidin-2-yl)-2-oxo-propyl]-3H-pyrido[3,2-d]pyrimidin-4-one]
7/7: Mice surviving 60 days/Mice infected and treated [1, 5] | Mice surviving 60 days/Mice infected and treated [1, 6] | Mice surviving 60 days/Mice infected and treated [1, 7] | Mice surviving 60 days/Mice infected and treated [1, 8] | Mice surviving 60 days/Mice infected and treated [1, 9]
0/5: Mice surviving day 60/Mice infected and treated ([3]; oral, day of treatment −3, dose 0.5 mg/kg)
5/5: Mice surviving 60 days/Mice infected and treated [2, 11] | Mice surviving 60 days/Mice infected and treated [2, 12] | Mice surviving 60 days/Mice infected and treated [2, 13] | Mice surviving 60 days/Mice infected and treated [2, 14] | Mice surviving 60 days/Mice infected and treated [2, 15] | Mice surviving 60 days/Mice infected and treated [2, 16] | Mice surviving 60 days/Mice infected and treated [2, 17] | Mice surviving day 60/Mice infected and treated ([3]; oral, day of treatment 1, dose 0.5 mg/kg) | Mice surviving day 60/Mice infected and treated ([3]; oral, day of treatment 1, dose 2 mg/kg) | Mice surviving day 60/Mice infected and treated ([3]; oral, day of treatment 1, dose 8 mg/kg) | Mice surviving day 60/Mice infected and treated ([3]; oral, day of treatment 1, dose 32 mg/kg) | Mice surviving day 60/Mice infected and treated ([3]; oral, day of treatment 2, dose 0.5 mg/kg) | Mice surviving day 60/Mice infected and treated ([3]; oral, day of treatment 2, dose 2 mg/kg) | Mice surviving day 60/Mice infected and treated ([3]; oral, day of treatment 2, dose 8 mg/kg) | Mice surviving day 60/Mice infected and treated ([3]; oral, day of treatment 2, dose 32 mg/kg) | Mice surviving day 60/Mice infected and treated ([3]; oral, day of treatment −1, dose 0.5 mg/kg) | Mice surviving day 60/Mice infected and treated ([3]; oral, day of treatment −1, dose 2 mg/kg) | Mice surviving day 60/Mice infected and treated ([3]; oral, day of treatment −1, dose 8 mg/kg) | Mice surviving day 60/Mice infected and treated ([3]; oral, day of treatment −1, dose 32 mg/kg) | Mice surviving day 60/Mice infected and treated ([3]; oral, day of treatment −2, dose 0.5 mg/kg) | Mice surviving day 60/Mice infected and treated ([3]; oral, day of treatment −2, dose 2 mg/kg) | Mice surviving day 60/Mice infected and treated ([3]; oral, day of treatment −2, dose 8 mg/kg) | Mice surviving day 60/Mice infected and treated ([3]; oral, day of treatment −2, dose 32 mg/kg) | Mice surviving day 60/Mice infected and treated ([3]; oral, day of treatment −3, dose 2 mg/kg) | Mice surviving day 60/Mice infected and treated ([3]; oral, day of treatment −3, dose 8 mg/kg) | Mice surviving day 60/Mice infected and treated ([3]; oral, day of treatment −3, dose 32 mg/kg)
completely protected from malaria: Protection from malaria (oral prophylactic activity) ([3]; single dose of 0.5 mg/kg within 2 days preinfection through 2 days post infection)
4/5: Mice surviving 60 days/Mice infected and treated [2, 10]

O=C(CC1NCCC1O)Cn1cnc2cccc(C(F)(F)F)c2c1=O (centres unmarked) [Compound V, 3-[3-(3-Hydroxy-pyrrolidin-2-yl)-2-oxo-propyl]-5-trifluoromethyl-3H-quinazolin-4-one]
7/7: Mice surviving 60 days/Mice infected and treated [1, 5] | Mice surviving 60 days/Mice infected and treated [1, 6] | Mice surviving 60 days/Mice infected and treated [1, 7] | Mice surviving 60 days/Mice infected and treated [1, 8] | Mice surviving 60 days/Mice infected and treated [1, 9]
5/5: Mice surviving 60 days/Mice infected and treated [2, 11] | Mice surviving 60 days/Mice infected and treated [2, 12] | Mice surviving 60 days/Mice infected and treated [2, 13] | Mice surviving 60 days/Mice infected and treated [2, 14] | Mice surviving 60 days/Mice infected and treated [2, 15] | Mice surviving 60 days/Mice infected and treated [2, 16] | Mice surviving 60 days/Mice infected and treated [2, 17] | Mice surviving day 60/Mice infected and treated [3, 18] | Mice surviving day 60/Mice infected and treated [3, 19] | Mice surviving day 60/Mice infected and treated [3, 20] | Mice surviving day 60/Mice infected and treated [3, 21]
4/5: Mice surviving 60 days/Mice infected and treated [2, 10]

O=C(C[C@H]1NCCC[C@@H]1O)Cn1cnc2ccccc2c1=O [Febrifugine, reference compound]
5/7: Mice surviving 60 days/Mice infected and treated [1, 7]
2/7: Mice surviving 60 days/Mice infected and treated [1, 6]
0/7: Mice surviving 60 days/Mice infected and treated [1, 8] | Mice surviving 60 days/Mice infected and treated [1, 9]
1/7: Mice surviving 60 days/Mice infected and treated [1, 5]
10 mg/kg/day: Dosage at which mouse toxic death occurred [4]

CCN(CC)CCCC(C)Nc1ccnc2cc(Cl)ccc12 (centres unmarked) [Chloroquine, reference compound]
0/7: Mice surviving 60 days/Mice infected and treated [1, 5] | Mice surviving 60 days/Mice infected and treated [1, 6] | Mice surviving 60 days/Mice infected and treated [1, 9]
2/7: Mice surviving 60 days/Mice infected and treated [1, 7]
4/7: Mice surviving 60 days/Mice infected and treated [1, 8]

O=C(CC1NCCC1O)Cn1cnc2ccc(F)c(F)c2c1=O (centres unmarked) [Compound IV, 5,6-Difluoro-3-[3-(3-hydroxy-pyrrolidin-2-yl)-2-oxo-propyl]-3H-quinazolin-4-one]
4/5: Mice surviving 60 days/Mice infected and treated [2, 10]
7/7: Mice surviving 60 days/Mice infected and treated [1, 6] | Mice surviving 60 days/Mice infected and treated [1, 7] | Mice surviving 60 days/Mice infected and treated [1, 8] | Mice surviving 60 days/Mice infected and treated [1, 9]
6/7: Mice surviving 60 days/Mice infected and treated [1, 5]
5/5: Mice surviving 60 days/Mice infected and treated [2, 11] | Mice surviving 60 days/Mice infected and treated [2, 12] | Mice surviving 60 days/Mice infected and treated [2, 13] | Mice surviving 60 days/Mice infected and treated [2, 14] | Mice surviving 60 days/Mice infected and treated [2, 15] | Mice surviving 60 days/Mice infected and treated [2, 16] | Mice surviving 60 days/Mice infected and treated [2, 17] | Mice surviving day 60/Mice infected and treated [3, 18] | Mice surviving day 60/Mice infected and treated [3, 19] | Mice surviving day 60/Mice infected and treated [3, 20] | Mice surviving day 60/Mice infected and treated [3, 21]
